# Laboratory results as given in ChEMBL document CHEMBL1123583 (J Med Chem, 1987).
# What was measured:
# [1] = Acid dissociation constant was determined for the compound; assay type: ADME
# [2] = molecular target: Histamine H2 receptor (Cavia porcellus) (UniProt P47747)
# [3] = molecular target: Histamine H2 receptor (Cavia porcellus) (UniProt P47747); remark: listed apart in the source
# [4] = molecular target: Histamine H2 receptor (Cavia porcellus) (UniProt P47747); remark: listed apart in the source
# [5] = molecular target: T1, Histamine H2 receptor (Cavia porcellus, UniProt P47747); experiment: Antagonistic activity of guinea pig Histamine H2 receptor expressed as pA2 at pH 7.4; assay type: functional; conditions: read-out: pA2 (converted)
# [6] = molecular target: T1, Histamine H2 receptor; experiment: Antagonistic activity of guinea pig Histamine H2 receptor expressed as pA2 at pH 7.0; assay type: functional; conditions: read-out: pA2 (converted)
# [7] = molecular target: T1, Histamine H2 receptor; experiment: Antagonistic activity of guinea pig Histamine H2 receptor expressed as pA2 at pH 7.8; assay type: functional; conditions: read-out: pA2 (converted)
# T1 sequence (P47747 whole entry): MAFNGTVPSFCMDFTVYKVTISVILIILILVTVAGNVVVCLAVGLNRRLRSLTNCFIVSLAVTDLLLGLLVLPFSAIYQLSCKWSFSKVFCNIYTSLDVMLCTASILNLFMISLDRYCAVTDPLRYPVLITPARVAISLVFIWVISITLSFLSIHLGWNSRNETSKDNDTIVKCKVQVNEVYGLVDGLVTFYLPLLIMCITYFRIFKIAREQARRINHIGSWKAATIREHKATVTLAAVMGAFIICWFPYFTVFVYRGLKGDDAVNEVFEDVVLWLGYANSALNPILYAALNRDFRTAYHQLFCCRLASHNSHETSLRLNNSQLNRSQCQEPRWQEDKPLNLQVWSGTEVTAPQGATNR
# Sequence of Histamine H2 receptor (Cavia porcellus) (P47747 whole entry): as above
Structure (SMILES),pKa ([1]; read-out: pKa1),pD2 [2],pD2 [3],pD2 [4],pKa ([1]; read-out: pKa2),Kb [5] [nM],Kb [6] [nM],Kb [7] [nM]
CN/C(=N/CCSCc1nc[nH]c1C)NC#N [CIMETIDINE],6.98,,,,,,,
NCCc1c[nH]cn1 [HISTAMINE],9.57,5.88,5.89,5.81,6.1,,,
CC(C)/N=C/Nc1ccc(-c2c[nH]cn2)cc1 [MIFENTIDINE],8.82,,,,5.64,17.4,45.7,11.7
